Measurements taken from patent US11840686B2, “Modulation of prekallikrein (PKK) expression” (Ionis Pharmaceuticals, Inc., priority 2013, dated 2023).
Strand notation (5' to 3'): a small letter for the sugar, then the base; units joined by * are phosphorothioate-linked, units joined directly phosphodiester-linked; [ ] holds rarer units or linkages, { } end groups; capitals alone tell only the bases. e = 2'-O-(2-methoxyethyl) (MOE); [5mC] = 5-methylcytosine; d = 2'-deoxy (DNA)

How the values were obtained:
mouse PKK mRNA = experiment: Antisense inhibition of murine PKK mRNA in mouse primary hepatocytes (Example 9); type: cell-based; conditions: Cytofectin; for % inhibition of mouse PKK mRNA levels: approx. 24 hours
Description: Antisense oligonucleotides targeting a murine PKK nucleic acid were designed and tested for their effects on PKK mRNA in vitro. Cultured mouse primary hepatocytes at a density of 10,000 cells per well were transfected using Cytofectin reagent with 12.5 nM, 25.0 nM, 50.0 nM, 100.0 nM, and 200.0 nM of antisense oligonucleotide. After a treatment period of approximately 24 hours, RNA was isolated from the cells and mouse PKK mRNA levels were measured by quantitative real-time PCR using the murine primer probe set RTS3313 (forward sequence […], designated herein as SEQ ID NO: 2228; reverse sequence […], designated herein as SEQ ID NO: 2229; probe sequence […], designated herein as SEQ ID NO: 2230). PKK mRNA levels were adjusted according to total RNA content, as measured by RIBOGREEN.
The chimeric antisense oligonucleotides were designed as 5-10-5 MOE gapmers. The gapmers are 20 nucleotides in length, wherein the central gap segment is comprised of ten 2′-deoxynucleosides and is flanked on both sides (in the 5′ and 3′ directions) by wings comprising 5 nucleosides each. Each nucleoside in the 5′ wing segment and each nucleoside in the 3′ wing segment has a 2′-O-methoxyethyl modification. The internucleoside linkages throughout each gapmer are phosphorothioate linkages. All cytosine residues throughout each gapmer are 5-methylcytosines.
ISIS 482584 is targeted to SEQ ID NO: 11 (GENBANK Accession No. NM_008455.2) and has a target start site of 1586 and a target stop site of 1605. “Target start site” indicates the 5′-most nucleotide to which the gapmer is targeted. “Target stop site” indicates the 3′-most nucleotide to which the gapmer is targeted.

[1] = test system: thrombus formation (platelet factor-4 mRNA); experiment: FeCl3-induced inferior vena cava thrombosis model, PF-4 quantification (Example 19); type: in vivo, mouse; conditions: BALB/c mice; for PF-4 (percentage compared to PBS controls): FeCl3 vena cava
Description: Three groups of 8 male BALB/c mice were treated with 10 mg/kg, 20 mg/kg, or 40 mg/kg of ISIS 482584, administered subcutaneously twice a week for 3 weeks (weekly doses of 20 mg/kg, 40 mg/kg, or 80 mg/kg). Two control groups of 12 BALB/c mice each were treated with PBS, administered subcutaneously twice a week for 3 weeks. Two days after the last dose of antisense oligonucleotide or PBS, mice from all groups were anesthetized with 150 mg/kg ketamine mixed with 10 mg/kg xylazine, administered by intraperitoneal injection. Thrombus formation was induced with FeCl3 in all groups of anesthetized mice except the first control group.
In mice undergoing FeCl3 treatment, thrombus formation was induced by applying a piece of filter paper (2×4 mm) pre-saturated with 10% FeCl3 solution directly on the vena cava. After 3 minutes of exposure, the filter paper was removed. Thirty minutes after the filter paper application, a fixed length of the vein containing the thrombus was dissected out for platelet analysis. Liver was collected for RNA analysis.
Real-time PCR quantification of platelet factor-4 (PF-4) was used to quantify platelets in the vena cava as a measure of thrombus formation. PF-4 mRNA levels were measured using the murine primer probe set mPF4_LTS_00086 (forward sequence […], designated herein as SEQ ID NO: 2240; reverse sequence CGCAGCGACGCTCATG, designated herein as SEQ ID NO: 2241; probe sequence […], designated herein as SEQ ID NO: 2242). Results are presented as a percentage of PF-4 in ISIS oligonucleotide-treated mice, as compared to the two PBS-treated control groups. […] Therefore, reduction of PKK by the compound provided herein is useful for inhibiting thrombus formation.

murine PKK mRNA = experiment: PKK mRNA in BALB/c mice liver (Example 10); type: in vivo, mouse; conditions: for % inhibition of PKK mRNA in BALB/c mice liver: twice a week for 3 weeks, relative to PBS control
Description: ISIS 482584 was tested for its effect on murine PKK mRNA in vivo.
Six groups of male BALB/c mice each were treated with 2.5 mg/kg, 5.0 mg/kg, 10.0 mg/kg, 20.0 mg/kg, 40.0 mg/kg, or 80.0 mg/kg of ISIS 482584, administered subcutaneously twice a week for 3 weeks (weekly doses of 5.0 mg/kg, 10.0 mg/kg, 20.0 mg/kg, 40.0 mg/kg, 80.0 mg/kg, or 160.0 mg/kg). A control group of BALB/c mice was treated with PBS, administered subcutaneously twice a week for 3 weeks. Two days after the last dose of antisense oligonucleotide or PBS, mice from all groups were anesthetized with 150 mg/kg ketamine mixed with 10 mg/kg xylazine, administered by intraperitoneal injection. Liver was collected for RNA analysis.
RNA was extracted from liver tissue for real-time PCR analysis of PKK. PKK mRNA levels were measured using the murine primer probe set (forward sequence […], designated herein as SEQ ID NO: 2231; reverse sequence […], designated herein as SEQ ID NO: 2232; probe sequence […], designated herein as SEQ ID NO: 2233). Results are presented as percent inhibition of PKK, relative to PBS control.

ISIS 482584: 5-10-5 MOE gapmer targeting murine PKK, GGCATATTGGTTTTTGGAAT; SEQ ID NO: 2244 (antisense eG*eG*e[5mC]*eA*eT*dA*dT*dT*dG*dG*dT*dT*dT*dT*dT*eG*eG*eA*eA*eT)
% inhibition of mouse PKK mRNA levels (mouse PKK mRNA; 12.5 nM): 0%
% inhibition of mouse PKK mRNA levels (mouse PKK mRNA; 25.0 nM): 47%
% inhibition of mouse PKK mRNA levels (mouse PKK mRNA; 50.0 nM): 27%
% inhibition of mouse PKK mRNA levels (mouse PKK mRNA; 100.0 nM): 60%
% inhibition of mouse PKK mRNA levels (mouse PKK mRNA; 200.0 nM): 82%
IC50 (mouse PKK mRNA; 12.5-200.0 nM, ~24 h, read-out: half maximal inhibitory concentration (IC50)): 84 nM
PF-4 (percentage compared to PBS controls) ([1]; 20 mg/kg/wk sc 3 weeks): 62%
PF-4 (percentage compared to PBS controls) ([1]; 40 mg/kg/wk sc 3 weeks): 34%
PF-4 (percentage compared to PBS controls) ([1]; 80 mg/kg/wk sc 3 weeks): 25%
PF-4 in vena cava ([1]; 10-40 mg/kg s.c. twice a week for 3 weeks, vs PBS control): significant reduction of PF-4
% inhibition of PKK mRNA in BALB/c mice liver (murine PKK mRNA; 5 mg/kg/wk sc): 3%
% inhibition of PKK mRNA in BALB/c mice liver (murine PKK mRNA; 10 mg/kg/wk sc): 42%
% inhibition of PKK mRNA in BALB/c mice liver (murine PKK mRNA; 20 mg/kg/wk sc): 68%
% inhibition of PKK mRNA in BALB/c mice liver (murine PKK mRNA; 40 mg/kg/wk sc): 85%
% inhibition of PKK mRNA in BALB/c mice liver (murine PKK mRNA; 80 mg/kg/wk sc): 91%
% inhibition of PKK mRNA in BALB/c mice liver (murine PKK mRNA; 160 mg/kg/wk sc): 94%
reduction of PKK mRNA in liver (murine PKK mRNA; BALB/c mice, 2.5-80.0 mg/kg s.c. twice a week for 3 weeks, vs PBS): significant dose-dependent reduction of PKK mRNA
